One molecule from paper PMC7718273 (Scientific Reports, 2020) can be followed below.

Data set [1] is described as follows: Plasma protein binding, human. The data set is classed as in vitro ADME. To be noted: human (H), read-out: Plasma protein binding (% bound) (converted). How it is done:
Protein binding was conducted as described. Compound solutions prepared in DMSO were diluted in phosphate buffer (final concentration: 1 µg/mL), and added into human plasma (total volume: 1 mL). Aliquots were then transferred in duplicate to: (i) a final concentration plate that was immediately quenched with 23.6 ng/mL internal standard (IS, chlorpropamide) in ACN, (ii) a degradation control, which was placed in a water bath at 37℃ for 4 h, and (iii) ultracentrifuge tubes, which were centrifuged for 5 min at 4℃ (14,000 rpm). All reactions were stopped by the addition of ACN containing 23.6 ng/mL chlorpropamide. The samples were subjected to LC–MS/MS analysis.

The nature of data set [2]: Pharmacokinetic study in monkeys. The data set is classed as in vivo. The conditions noted are these: male, cynomolgus, cynomolgus monkey, plasma, inhaled or intranasal; for AUC(0-t): read-out: AUC(0–6 h). As to the method:
Six male cynomolgus monkeys (4.5–5.5 kg) were obtained from Sichuan Primed Shines Bio-tech Co., Ltd (Chengdu, Sichuan, China) and maintained at 18–26 °C, a relative humidity of 40%-70%, a minimum of 8 air changes/h, and a 12-h light/12-h dark cycle. […] Plasma sample preparations and analysis were the same as described in mice study.

The target in the next data set is serum FAP (Macaca fascicularis, UniProt A0A2K5VGH4). The data set is described as follows: IC50 on serum FAP, monkeys. The data set is classed as biochemical. The conditions noted are these: read-out: Serum FAP IC50 (nM): Monkey.
Sequence of serum FAP (A0A2K5VGH4 entry or part of it): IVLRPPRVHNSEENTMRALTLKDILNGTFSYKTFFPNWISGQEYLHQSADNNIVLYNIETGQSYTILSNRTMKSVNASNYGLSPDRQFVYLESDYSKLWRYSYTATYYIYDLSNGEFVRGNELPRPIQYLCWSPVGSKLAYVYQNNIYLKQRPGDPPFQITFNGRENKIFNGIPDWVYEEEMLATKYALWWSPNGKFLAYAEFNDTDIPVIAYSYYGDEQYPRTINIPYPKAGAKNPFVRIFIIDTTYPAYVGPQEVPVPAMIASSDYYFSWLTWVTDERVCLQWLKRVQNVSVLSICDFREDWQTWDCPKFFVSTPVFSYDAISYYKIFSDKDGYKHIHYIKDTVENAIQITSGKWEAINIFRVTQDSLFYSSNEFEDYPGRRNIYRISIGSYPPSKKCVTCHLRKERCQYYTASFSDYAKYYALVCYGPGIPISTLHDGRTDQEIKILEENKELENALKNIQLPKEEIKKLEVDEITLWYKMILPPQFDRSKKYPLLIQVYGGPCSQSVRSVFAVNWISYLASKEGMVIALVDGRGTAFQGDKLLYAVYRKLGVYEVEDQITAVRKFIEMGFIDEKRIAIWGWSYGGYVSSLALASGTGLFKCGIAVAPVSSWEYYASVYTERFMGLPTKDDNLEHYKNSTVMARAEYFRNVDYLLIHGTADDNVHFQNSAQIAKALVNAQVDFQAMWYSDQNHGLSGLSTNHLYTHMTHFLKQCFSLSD
The nature of data set [3]: Pharmacokinetic study in rats. The data set is classed as in vivo. To be noted: male, Sprague-Dawley, plasma, rat, oral 10 mg/kg. The source says:
Six male Sprague–Dawley rats (7-week-old, 240–250 g) were obtained from Orient Bio INC. (Seongnam, Gyeonggi-do, Korea) and maintained at 22℃ on a 12-h light/12-h dark cycle with free access to water. All animals were maintained under such conditions for a minimum of 2 weeks prior to initiation of the studies. […] Plasma sample preparations and analysis were the same as described in mice study.

The test system of data set [4] is differentiated 3T3/L1 adipocytes. Description: hFGF21 signalling in differentiated 3T3/L1 adipocytes with added FAP (immunoblot). The data set is classed as cell-based. To be noted: 5 µM; hFGF21 500 ng/mL pre-incubated with FAP 100 ng/mL for 2 h. As to the method:
Treatment with hFGF21 increased p-ERK, Glut1 and adiponectin levels, which were reduced in the presence of FAP.
(a) Fully differentiated 3T3/L1 adipocytes were incubated with full-length hFGF21 at 500 ng/mL. […] Phosphorylated ERK (p-ERK), total ERK (ERK), Glut1, adiponectin and β-actin were measured by immunoblots. (b) Quantification of p-ERK, Glut1 and adiponectin was obtained with densitometric analysis, and normalized with total ERK or β-actin, respectively.
Western blots were performed as described. For protein preparation, cells or tissues were solubilized in a lysis buffer. Protein concentration was determined using a Bio-Rad Protein Assay kit (Bio-Rad, Richmond, CA). Then, 20 μg of the protein was electrophoresed by SDS-PAGE and electrotransferred to polyvinylidene fluoride membranes (Millipore, Bedford, MA). […] Antibodies were detected by horseradish peroxidase-linked secondary antibody (1:10,000; Cell Signaling Tech., 7074S), using the enhanced chemiluminescence Western Blotting Detection System (Molecular Imager Gel Doc XR System, BIO-RAD). […]
A general note: Immunoblotting shows a protein as a band on a membrane.

In the next data set the target is T1, DPP4 (Homo sapiens, UniProt P27487).
T1 construct: purchased R&D Systems 9168-SE
T1 sequence (P27487 whole entry): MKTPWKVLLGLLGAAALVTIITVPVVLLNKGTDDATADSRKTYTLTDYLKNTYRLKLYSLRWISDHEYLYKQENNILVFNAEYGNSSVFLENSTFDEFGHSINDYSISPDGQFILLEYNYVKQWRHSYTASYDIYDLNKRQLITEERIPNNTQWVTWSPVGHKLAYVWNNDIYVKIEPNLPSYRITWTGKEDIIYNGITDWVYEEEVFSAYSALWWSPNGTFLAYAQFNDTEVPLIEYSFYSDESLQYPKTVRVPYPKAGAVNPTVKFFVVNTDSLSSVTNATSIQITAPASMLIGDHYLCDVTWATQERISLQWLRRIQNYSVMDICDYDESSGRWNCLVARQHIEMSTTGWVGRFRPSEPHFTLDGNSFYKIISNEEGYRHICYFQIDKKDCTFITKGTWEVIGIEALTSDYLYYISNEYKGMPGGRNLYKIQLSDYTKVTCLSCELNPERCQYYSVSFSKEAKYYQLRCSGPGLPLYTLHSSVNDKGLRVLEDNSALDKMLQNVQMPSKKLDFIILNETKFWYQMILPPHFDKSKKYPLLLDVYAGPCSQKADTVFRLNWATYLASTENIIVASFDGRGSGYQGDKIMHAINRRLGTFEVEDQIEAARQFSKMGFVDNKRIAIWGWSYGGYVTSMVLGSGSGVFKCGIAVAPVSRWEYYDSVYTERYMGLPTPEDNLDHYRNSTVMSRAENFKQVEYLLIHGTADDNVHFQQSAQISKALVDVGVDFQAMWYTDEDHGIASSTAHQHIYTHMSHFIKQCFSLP
Description: DPP4 activity, fluorometric assay with AMC substrate. Type of data set: biochemical. The conditions noted are these: fluorometric assay using AMC substrates. As to the method: (§1) Recombinant human PREP (hPREP) (catalog no. 4308-SE), hDPP2/7 (catalog no. 3438-SE), hDPP9 (catalog no. 5419-SE), hFAP (catalog no. 3715-SE), and hDPP4 (catalog no. 9168-SE) proteins were from R&D Systems (Minneapolis, MN). Human FGF21 (catalog no. CRF159C) was from Cell Science (Newburyport, MA).
(§2) FAP enzyme activities were assayed in 20 mM Tris/HCl, 0.1 M NaCl, 1 mM EDTA (pH 8.0) in the presence of 40 μM Suc-Gly-Pro-Leu-Gly-Pro-AMC (#I-1350.0100, BACHEM, Bubendorf, Switzerland) and hFAP in a total volume of 100 µL. […] The inhibitor concentrations ranged from 100 μM to 0.03 nM, and its IC50 values were computed with commercially available curve-fitting programs such as the SigmaPlot. Other protease activities were determined in a similar manner.

Data set [5] can be described thus: Microsomal stability, mouse. The conditions noted are these: liver microsomes, pH 7.4, mouse (M), 0.5 mg/mL, NADPH, read-out: Microsomal stability (% remaining at 60 min). The data set is classed as in vitro ADME. How it is done: Aliquots were then transferred in duplicate to: (i) a final concentration plate that was immediately quenched with 23.6 ng/mL internal standard (IS, chlorpropamide) in acetonitrile (ACN) or (ii) tubes, which were centrifuged for 5 min at 4℃ (14,000 rpm). The samples were subjected to LC–MS/MS analysis on an AB Sciex 4000 Q Trap hybrid triple quadrupole linear ion-trap MS (AB Sciex, Framingham, MA) coupled to an Agilent 1200 HPLC (Agilent Tech. Santa Clara, CA) with a reverse-phase Kinetex XB-C18 column (2.1 × 100 mm, 2.6 µm; Phenomenex). Mobile phases were comprised of 0.1% formic acid (FA) in water (A) and 0.1 FA in ACN (B). Data analysis was performed using […] (Ver. 1.6.1).
A general note: Liver microsomes are a subcellular fraction often used to study metabolism.

A further data set has as its target T2, PREP (Homo sapiens, UniProt P48147).
T2 construct: purchased R&D Systems 4308-SE
Description: PREP activity, fluorometric assay with AMC substrate. Type of data set: biochemical. As to the method:
as §1, §2

SMILES strings stand for the structures. A value given as a limit tells only on which side of the number the result lay.

T2 sequence (P48147 whole entry): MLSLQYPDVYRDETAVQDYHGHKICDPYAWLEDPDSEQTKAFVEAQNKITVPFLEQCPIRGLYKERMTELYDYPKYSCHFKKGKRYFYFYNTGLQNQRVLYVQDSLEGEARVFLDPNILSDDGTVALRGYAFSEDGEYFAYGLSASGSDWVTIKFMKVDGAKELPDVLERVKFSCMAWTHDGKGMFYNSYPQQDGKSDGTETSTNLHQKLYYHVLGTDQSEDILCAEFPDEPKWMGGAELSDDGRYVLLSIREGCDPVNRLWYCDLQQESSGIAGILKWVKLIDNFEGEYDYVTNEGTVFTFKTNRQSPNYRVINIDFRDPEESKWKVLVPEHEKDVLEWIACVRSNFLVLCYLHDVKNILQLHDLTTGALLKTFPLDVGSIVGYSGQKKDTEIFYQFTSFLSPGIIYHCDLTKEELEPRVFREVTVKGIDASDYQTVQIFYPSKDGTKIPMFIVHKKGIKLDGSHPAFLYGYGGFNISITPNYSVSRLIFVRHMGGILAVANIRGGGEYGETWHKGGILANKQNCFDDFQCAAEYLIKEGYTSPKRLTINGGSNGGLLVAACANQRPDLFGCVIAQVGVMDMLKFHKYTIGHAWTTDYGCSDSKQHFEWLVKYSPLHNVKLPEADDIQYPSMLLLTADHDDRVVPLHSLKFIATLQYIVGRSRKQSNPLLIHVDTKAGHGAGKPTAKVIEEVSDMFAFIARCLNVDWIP

As for `N#Cc1ccc(Cc2nc(C(=O)NCC(=O)N3CC(F)(F)C[C@H]3C#N)cs2)cc1` [BR103354, (S)-N-(2-(2-cyano-4,4-difluoropyrrolidin-1-yl)-2-oxoethyl)-2-(4-cyanobenzyl)thiazole-4-carboxamide], the fraction unbound at 1 µg/mL in data set [1] was 0.33. Besides, the Cmax in data set [2] (monkey, 10 mg/kg intranasally) worked out at 420 ng/mL; in data set [2] (monkey, 30 mg/kg intranasally), 2000 ng/mL; in data set [3], 4400 ng/mL. Further, the Tmax was found to be 2.3 h in data set [2] (monkey, 10 mg/kg intranasally); 2.3 h in data set [2] (monkey, 30 mg/kg intranasally); 2.3 h in data set [2] (monkeys, dose not given in the sentence (10/30 mg/kg)); 1.1 h in data set [3]. In addition, the AUC(0-t) was 1200 ng·h/mL in data set [2] (monkey, 10 mg/kg intranasally); 6400 ng·h/mL in data set [2] (monkey, 30 mg/kg intranasally); 19700 ng·h/mL in data set [3] (read-out: AUC(0–6 h)). For the same molecule, the half-life is 78 min in data set [2] (monkey, 10 mg/kg intranasally, read-out: T1/2 (converted)); 168 min in data set [2] (monkey, 30 mg/kg intranasally, read-out: T1/2 (converted)); 78 to 168 min in data set [2] (monkeys, 10/30 mg/kg, read-out: half-life (T1/2), range over doses); 210 min in data set [3]. The figures for the IC50 at serum FAP, against DPP4 and at PREP were 27 nM, > 100000 nM and 387 nM, respectively. In data set [4], the Glut1 levels entry is given as “enhanced Glut1 levels”. For the same molecule, in data set [4], the p-ERK levels entry is recorded as “restored p-ERK levels to those of normal”. For the same molecule, in data set [5], the share remaining at 1 h, 1 µM came out at 98%.

One may read the Cmax as the peak of the concentration-time curve. Usually Tmax stands for the time from dosing to the highest level. What is called IC50 is the point on the concentration scale where inhibition reaches its midpoint. One may read the amount remaining as what is left of the initial amount, in per cent.
